From patent US20220296629A1, “HUMAN HEAD AND NECK CANCER TREATMENT” (CARMEL HAIFA […] CORPORATION LTD., priority 2019, published 2022)

How the values were obtained:
Fadu cells [1] = assay: XTT cell viability after transient transfection of Fadu cells; assay type: cell-based; conditions: 1 μg plasmid, 48 hours post transfection, viability reduced to
Method: FIG. 2 includes a vertical bar graph of cell viability following miR-193a-5p plasmid transfection. Squamous cancer cells Fadu were transfected with pCMV-miR-193a, or with p-CMV-GFP (MOC plasmid), 48 hours post transfection. cell viability was detected by XTT. Presented data are means±SD of three experiments, each conducted in eight replicates, and are expressed as percentages of the respective control. ***P<0.001(Dunnett's test).
FIG. 3 includes a vertical bar graph of cell viability following miR-193a-5p plasmid transfection time course experiment. Squamous cancer cells Fadu were transfected with miR-193a-5p or with MOC plasmid, 24 hours, 48 hours and 72 hours post transfection. cell viability was detected by XTT. Presented data are means±SD of three experiments, each conducted in eight replicates, and are expressed as percentages of the respective control. Statistical significance determined by a two-tailed student's t-test. Significance was determined as follows: *P<0.05, **P<0.01 and ***P<0.001.
Fadu Cells were seeded in a 96 well plate (3×10^4 cells/well). […]
At the end of treatment, cell viability was measured using XTT. The data presented are average of at least three independent experiments; 8 repeats each (means±SEM), and are expressed as percentage of the respective vehicle treated control. […]

Fadu cells [2] = assay: Fadu xenograft tumor growth in athymic nude mice; assay type: in vivo; conditions: tumors harvested 21 days post treatment, P<0.0001
Method: FIG. 6 includes a graph presenting data from 16 athymic nude male mice which were subcutaneously injected with 1×10^6 Fadu cells. When the tumors reached a volume of 200 mm^3 the mice were divided into 2 groups of 8 mice each, with a similar dispersal of tumor volumes. Mice were injected once a week with intraperitoneal (IP) injection of either PBS×1 to the control group, or 1×10^10 vp AD-miR-193a, for 3 weeks. During the experiments, tumor volumes were measured twice a week using caliber meter. The results presented are the mean±SE. n=8 mice per experimental group.
FIGS. 7A-7B include vertical bar graphs showing the effect of miR-193a on final tumor weight (7A) and volume (7B). The results presented are the mean±SE. n=8 tumors per experimental group. Statistical significance for tumor weight determined by Mann-Whitney and for tumor volume by two-tailed Student's t-test (treatment vs. control). ***P<0.01.
Xenograft animal model were generated via injection of 1×10^6 Fadu cells in Matrigel subcutaneous in athymic nude mice immunodeficient mice. When the tumors reached a volume of 200 mm^3 the mice were divided into 2 groups of 8 mice each, with a similar dispersal of tumor volumes. […]
Tumors were measured by electronic calliper, once a week. 21 days post treatment the tumors were harvested and weight was measured.
The animals were sacrificed, and the tumors were removed, weighed and measured. […]

miR-193a = miR-193a expression levels in Fadu cells by quantitative real-time PCR; assay type: cell-based, Homo sapiens; conditions: 5 μM, 48 hours, U6 normalization, vs 0.01% DMSO control
Method: FIG. 8 includes a vertical bar graph showing Real-time analysis of miRNA expression patterns in Fadu Cells. The expression levels of miRNAs; hsa-mir193a were analysed using Quantitative real-time PCR, following 5-aza-2′ -deoxycytidine cell treatment. Data represented as average of three independent experiments conducted in triplicates (mean±SD) and U6 was used as normalization. Statistical significance determined by a two-tailed Student's t-test. Significance was determined as follows: ***P<0.01.
miRNA was isolated using mirVana™ miRNA Isolation Kit (Ambion®) according the manufacturer's protocol, the mirVana™ kit utilizes two sequential GFFs, since the small […]
The concentration and purity of miRNA was assessed using NanoDrop™ lite spectrophotometer (NanodropTechnologies, Willmington, Del., USA). miRNA expression profiling was performed using the TaqMan microRNA arrays system (Applied Biosystems) with specific TaqMan primers and probes for miR-193a. cDNA was generated using TaqMan microRNA assay using Primers for the mir-193a with FAM/MGB. […] Real time PCR was carried out with Rotor Gene 6000 Real-Time PCR Machine-Bosch-Bosch, results were analyzed with delta delta Ct (ΔΔCt) method using the rotor Gene 6000 Real-Time PCR software. […]
miRNA were isolated, quantified, profiled and cDNA was generated. […]

Compound | Cell viability (XTT), percentage of control (Fadu cells [1]; first experiment) | Cell viability (XTT), percentage of control (Fadu cells [1]; second and third experiment) [%] | Final tumor volume vs control (Fadu cells [2]) | Final tumor weight vs control (Fadu cells [2]) | Increase in miR-193a expression levels (miR-193a) [folds]
miR-193a: Homo sapiens miR-193a, SEQ ID NO:1 UGGGUCUUUGCGGGCGAGAUGA; delivered as CMV plasmid or adenovirus AD-miR-193a (listed as Homo sapiens) | approximately 70% | ~40 | significantly reduced | significantly reduced | 
Nc1ncn([C@H]2C[C@H](O)[C@@H](CO)O2)c(=O)n1 [5-aza, 5-aza-2′ -deoxycytidine] |  |  |  |  | 132
